Results from patent publication US3957812A, “Derivatives of 2-phenoxyacetamido-5-nitro-thiazole” (priority 1973, dated 1976).
Converted amounts (≈) assume the structure as drawn. Read-outs that look alike come from different tables or passages of the source.

Legend:
Trichomonas vaginalis = test: Test for trichomonacidal activity; assay type: cell-based; conditions: Trichomonas vaginalis; read-out: Trichomonas vaginalis starting activity
Source text: (§1) Biological tests have been performed with a great number of compounds of formula (I) using the following techniques: (1) Test for amoebicidal activity described by R. CAVIER, Ann. pharm. franc., 1960, 18, pages 583-589 and by R. CAVIER, and J. CENAC, Bull. Soc. Path. exot. 1972, 65, pages 399-404. (2) Test for trichomonacidal activity described by R. CAVIER and P. BUOT, Ann. pharm. franc., 1964, 22, pages 211-216 and by R. CAVIER and J. CENAC, Semaine des Hopitaux, 1972, 48, pages 391-394). (3) Tests for anthelminthics described for nematodes (such as Syphacia obvelata) by R. CAVIER, Bull. Soc. Path. exot., 1962, 55, pages 412-417 and, for cestodes (such as Hymenolepis nana), by R. CAVIER, Ann. pharm. franc., 1956, 14, pages 545-552 and by R. CAVIER and M. J. NOTTEGHEM, Ann. pharm. franc. 1968, 28, pages 603-606.

Hymenolepis nana = test: Test for anthelminthics, cestodes (Hymenolepis nana); assay type: in vivo; parameters: Percentage of activity: concentration or dose not given beside the values; conditions: number of subjects 10
Source text: as §1

[1] = test system: Staphylococcus aureus 209 P; test: Determination of bacteriostatic doses, S. 209 P; assay type: cell-based; conditions: gelose medium, 37°C, 24 hours; for MIC: Staphylococcus aureus, 209P, read-out: bacteriostatic dose, S. 209 P
Description: (§2) (5) Method for determining bacteriostatic doses
(§3) A common gelose medium of the following composition is used.
(§4) The pH is adjusted at 7.2 and the medium is sterilized during 30 minutes at 120°C.
(§5) The same method as for the determination of fungistatic doses is used, except that the various dilutions of each compound are added to the gelose medium, the solvent concentration never exceeding 3%. Tubes containing […] of the compounds per ml are prepared.
(§6) Cultures of each strain in the liquid medium are prepared and, after 24 hours of incubation at 37°C, dilutions of these cultures in ordinary broth are prepared as follows:
Staphylococcus aureus 209 P
(§7) By means of these dilutions, scratches of a length of 4 to 5 cm are made on the previously dried surface of the gelose medium to which various amounts of the compound to be tested have been added.

[2] = test system: Trichophyton mentagrophytes; test: Determination of fungistatic doses, T.m.; assay type: cell-based; conditions: liquid Sabouraud medium, 25°C, 10 days; for MIC: Trichophyton mentagrophytes, 240 h, read-out: fungistatic dose, T.m
Description: (§8) (4) Method for determining fungistatic doses:
(§9) A liquide Sabouraud medium having the following composition is used:
(§10) If necessary, the pH is adjusted at 6.4 and the medium is sterilized.
(§11) The compounds are dissolved in dimethylformamide to which polyethylene glycol is sometimes added. From the mother-liquor, successive diluted solutions are prepared in the liquid Sabouraud medium, so as to obtain concentrations of 1, 3, 10, 30 100 and […] per ml. For the first dilution, one should not add more than 10% of the mother-liquor to the Sabouraud medium. Subsequently 9 ml per tube of the various solutions in the liquid Sabouraud medium are distributed.
(§12) Reference tubes corresponding to the highest solvent concentrations are also prepared.
(§13) Cultures of the various dermatophyte strains on Sabouraud gelose medium are prepared. From 1 to 2 months old cultures, homogeneous suspensions of said cultures in the liquid Sabouraud medium are prepared, the obtained suspensions being stirred in the presence of glass pearls having a light transmission of about 40%.
(§14) One drop of said suspension is introduced in the tubes containing the various concentrations of the compound to be tested.
(§15) at 25°C ± 2°C in the dark
(§16) 10 days of incubation for dermatophytes.

Syphacia obvelata = assay type: in vivo; parameters: Percentage of activity: concentration or dose not given beside the values; conditions: for Number of dead subjects (+): in vivo
Source text: as §1

Microsporum felineum = test: Determination of fungistatic doses, M.f.; assay type: cell-based; conditions: liquid Sabouraud medium, 25°C, 10 days
Description: as §8, §9, §10, §11, §12, §13, §14, §15, §16

Epidermo flocosum = test: Determination of fungistatic doses, E.f.; assay type: cell-based; conditions: liquid Sabouraud medium, 25°C, 10 days; for MIC: 240 h, read-out: fungistatic dose, E.f.
Description: as §8, §9, §10, §11, §12, §13, §14, §15, §16

Microsporum audouini = test: Determination of fungistatic doses, M.a.; assay type: cell-based; conditions: 240 h, liquid Sabouraud medium, 25°C, 10 days, read-out: fungistatic dose, M.a.
Description: as §8, §9, §10, §11, §12, §13, §14, §15, §16

Enterococcus 9790 = test: Determination of bacteriostatic doses, E. 9790; assay type: cell-based; conditions: gelose medium, 37°C, 24 hours; for MIC: Enterococcus, 9790, read-out: bacteriostatic dose, E. 9790
Description: as §2, §3, §4, §5, §6, §7

[3] = test system: Shigella dysenteriae 3410; test: Determination of bacteriostatic doses, S. 3410; assay type: cell-based; conditions: for MIC: Shigella dysenteriae, 3410, 24 h, read-out: bacteriostatic dose, S. 3410
Description: as §2, §3, §4, §5, §6
Shigella dysenteriae 3410
as §7

[4] = test system: Escherichia coli OIII B 4; test: Determination of bacteriostatic doses, O.III B 4; assay type: cell-based; conditions: gelose medium, 37°C, 24 hours
Description: as §2, §3, §4, §5, §6
Escherichia coli OIII B 4
as §7

Proteus vulgaris 8181 = test: Determination of bacteriostatic doses, 8181; assay type: cell-based; conditions: gelose medium, 37°C, 24 hours, strain 8181, read-out: bacteriostatic dose, (8181) printed in column P. morg.
Description: as §2, §3, §4, §5, §6, §7

in vivo [5] = conditions: mouse, po, orally administered to mice
Description: The LD50 of compounds PH 6099 and 5927, when orally administered to mice, is of more than 4000 mg/kg.

in vivo [6] = conditions: mouse, ip, intraperitoneal administration to mice, read-out: acute toxicity (LD50)
Trichophyton rubrum = test: Determination of fungistatic doses, T.r.; assay type: cell-based; conditions: 240 h, liquid Sabouraud medium, 25°C, 10 days, read-out: fungistatic dose, T.r.
Description: as §8, §9, §10, §11, §12, §13, §14, §15, §16

[7] = test system: Pseudomonas aeruginosa 8194; test: Determination of bacteriostatic doses, Pseudo 8194; assay type: cell-based; conditions: gelose medium, 37°C, 24 hours
Description: as §2, §3, §4, §5, §6
Pseudomonas aeruginosa 8194
as §7

[8] = test system: Proteus morganii IP 53185; test: Determination of bacteriostatic doses, P. morg.; assay type: cell-based; conditions: gelose medium, 37°C, 24 hours
Description: as §2, §3, §4, §5, §6
Proteus morganii IP 53185
as §7

Entomoeba dysenteriae = test: Test for amoebicidal activity; assay type: cell-based
Source text: as §1

[9] = Syphacia obvelata, number of subjects 10

Row | Compound | Number of dead subjects (+) (Hymenolepis nana) | Number of subjects from which the parasite has been eradicated (D) (Hymenolepis nana) | Percentage of activity (Hymenolepis nana) [%] | MIC [1] [µg/mL] | MIC [2] [µg/mL] | Percentage of activity (Syphacia obvelata; [9]) [%] | Number of dead subjects (+) (Syphacia obvelata) | MIC (Epidermo flocosum) [µg/mL] | also measured
1 | O=C(COc1ccc(Br)cc1)Nc1ncc([N+](=O)[O-])s1 [PH 6092] | 0 | 1 | 10 | 10 (≈ 27.9 µM) | 100 (≈ 279 µM) | 10 | 0 | – | minimal effective concentration (Trichomonas vaginalis): 100 µg/mL
2 | O=C(COc1cc(Cl)ccc1Cl)Nc1ncc([N+](=O)[O-])s1 [PH 6159] | 0 | 2 | 20 | – | 30 (≈ 86.2 µM) | 0 | 0 | – | –
3 | O=C(COc1ccc(Cl)cc1Cl)Nc1ncc([N+](=O)[O-])s1 [PH 6091] | 0 | 3 | 30 | 3 (≈ 8.62 µM) | 3 (≈ 8.62 µM) | 20 | 0 | 1 (≈ 2.87 µM) | MIC (Microsporum felineum; Microsporum, 240 h, read-out: fungistatic dose, M.f.): 30 µg/mL (≈ 86.2 µM)
4 | O=C(COc1c(F)c(F)c(F)c(F)c1F)Nc1ncc([N+](=O)[O-])s1 [PH 6168] | 0 | 2 | 20 | 10 (≈ 27.1 µM) | 1 (≈ 2.71 µM) | 0 | 0 | 1 (≈ 2.71 µM) | MIC (Microsporum audouini): 3 µg/mL (≈ 8.13 µM); MIC (Enterococcus 9790): 10 µg/mL (≈ 27.1 µM); MIC [3]: 300 µg/mL (≈ 813 µM); MIC ([4]; Escherichia coli, OIIIB4, read-out: bacteriostatic dose, O.III B 4): 300 µg/mL (≈ 813 µM); MIC (Proteus vulgaris 8181): 300 µg/mL (≈ 813 µM)
5 | O=C(COc1ccc(Cl)cc1)Nc1ncc([N+](=O)[O-])s1 [PH 5927] | 0 | 0 | 0 | 100 (≈ 319 µM) | 30 (≈ 95.6 µM) | 30 | 0 | 10 (≈ 31.9 µM) | LD50 (in vivo [5]): > 4000 mg/kg; LD50 (in vivo [6]): > 4500 mg/kg
6 | O=C(COc1ccc(F)cc1)Nc1ncc([N+](=O)[O-])s1 [PH 6160] | 0 | 0 | 0 | 10 (≈ 33.6 µM) | 4 (≈ 13.5 µM) | 0 | 0 | 1 (≈ 3.36 µM) | MIC (Microsporum audouini): 4 µg/mL (≈ 13.5 µM); MIC [3]: 100 µg/mL (≈ 336 µM); MIC (Trichophyton rubrum): 4 µg/mL (≈ 13.5 µM)
7 | O=C(COc1cc(C(F)(F)F)cc(C(F)(F)F)c1)Nc1ncc([N+](=O)[O-])s1 [PH 6167] | 0 | 7 | 70 | 3 (≈ 7.22 µM) | 1 (≈ 2.41 µM) | 40 | 0 | 1 (≈ 2.41 µM) | MIC (Enterococcus 9790): 10 µg/mL (≈ 24.1 µM)
8 | Cc1cc(OCC(=O)Nc2ncc([N+](=O)[O-])s2)c(C(C)C)cc1Cl [PH 6099] | 0 | 4 | 40 | 3 (≈ 8.11 µM) | – | 20 | 0 | – | MIC (Microsporum audouini): 0.1 µg/mL (≈ 0.27 µM); LD50 (in vivo [5]): > 4000 mg/kg; minimal effective concentration (Trichomonas vaginalis): 100 µg/mL; MIC (Enterococcus 9790): 300 µg/mL (≈ 811 µM); MIC [3]: 300 µg/mL (≈ 811 µM); LD50 (in vivo [6]): ~200 mg/kg; MIC (Trichophyton rubrum): 2 µg/mL (≈ 5.41 µM)
9 | Cc1cc(OCC(=O)Nc2ncc([N+](=O)[O-])s2)ccc1Cl [PH 6314] | 0 | 0 | 0 | 3 (≈ 9.15 µM) | – | 0 | 0 | – | minimal effective concentration (Trichomonas vaginalis): 2.5 µg/mL
10 | Cc1cc(Cl)c(OCC(=O)Nc2ncc([N+](=O)[O-])s2)cc1C [PH 6305] | 0 | 0 | 0 | – | – | 10 | 0 | – | –
11 | 2-(2'-trifluoromethyl-3'-methylphenoxyacetamido)-5-nitrothiazole [PH 6306] | 0 | 0 | 0 | – | – | 0 | 0 | – | bacteriostatic dose, E. 9790 (Enterococcus 9790): 100 µg/mL; fungistatic dose, M.f. (Microsporum felineum): 10 µg/mL; bacteriostatic dose, S. 3410 ([3]; gelose medium, 37°C, 24 hours): 0 µg/mL; bacteriostatic dose, S. 209 P [1]: 10 µg/mL; fungistatic dose, T.m [2]: 1 µg/mL; bacteriostatic dose, Pseudo 8194 [7]: 0 µg/mL; bacteriostatic dose, O.III B 4 [4]: 0 µg/mL; fungistatic dose, E.f. (Epidermo flocosum): 30 µg/mL; bacteriostatic dose, P. morg. [8]: 0 µg/mL; Entomoeba dysenteriae starting activity (Entomoeba dysenteriae): 5 mμ/ml; Number of subjects from which the parasite has been eradicated (D) (Syphacia obvelata; [9]): 0
